Assay results taken from US10202387B2, “Heterocyclyl linked imidazopyridazine derivatives as PI3KB inhibitors” (Janssen Pharmaceutica NV, priority 2014, dated 2019).

Key:
[1] = test system: Akt phosphorylated at Thr308 in PC-3 cells; test: Cellular assay: phosphorylation of Akt (Thr308) in PC-3 cells, MSD ELISA; format: cell-based; conditions: Homo sapiens, 1 h, 60 min incubation with compound, read-out: IC50 pAkt_Thr308
Method: (§1) Cellular activity of PI3Kβ inhibitors was determined by quantifying the phosphorylation of Akt in PC-3 cells. Akt phosphorylated at Ser473 and Thr308 were measured using an enzyme-linked immunosorbent assay (ELISA; Meso Scale Discovery (MSD). Gaithersburg, Md.) and specific primary antibodies from MSD.
(§2) On day 1, PC3 cells (ATCC […]) were seeded into PerkinElmer MW96 plates at 25.000 cells per well, in 75 μl complete culture medium (DMEM (Dulbecco's Modified Eagle's Medium) high glucose. AQmedia™, D0819, Sigma-Aldrich) containing 10% heat inactivated FCS (Fetal Bovine Serum) and incubated at 37° C., 5% CO2 during 24 hours. On day 2, compound or DMSO (dimethyl sulfoxide) (0.3%) was added and cells were further incubated for 60 min at 37° C., 5% CO2 in a total volume of 100 μl of medium.
(§3) The phosphoprotein assay was executed according to vendor instructions in the Phospho-Akt (Ser473) Assay Whole Cell Lysate Kit (MSD #K15100D-3) and the Phospho-Akt (Thr308) Assay Whole Cell Lysate Kit (MSD #K151DYD-3) using the lysis, blocking and wash buffer provided.
(§4) Briefly, at the end of the cell treatment period, media were removed by aspiration and adherent cells were lysed in 50 μl ice-cold lysis buffer. MSD plates are supplied pre-coated with capture antibodies for Phospho-Akt (Ser473 and Thr308). After blocking, lysates from tissue culture plates were added and plates were washed. Then, a solution containing the detection antibody (anti-total Akt conjugated with an electrochemiluminescent compound-MSD Sulfo-tag label) was added. The signals were detected using an MSD SECTOR Imager 6000 and are proportional to the phospho-Akt titres.
(§5) Data were processed. The percentage of inhibition was plotted against the log concentration of test compounds, and the sigmoidal log concentration-effect curve of best fit was calculated by nonlinear regression analysis. From these concentration-response curves, the IC50 values were calculated. Five concentrations were used for curve fitting.

[2] = test system: Akt phosphorylated at Ser473 in PC-3 cells; test: Cellular assay: phosphorylation of Akt (Ser473) in PC-3 cells, MSD ELISA; format: cell-based; conditions: Homo sapiens, 1 h, 60 min incubation with compound, read-out: IC50 pAkt_S473
Method: as §1, §2, §3, §4, §5

PIK3Cγ_h = target: T1, PIK3Cγ_h (Homo sapiens, UniProt P48736); test: Enzyme binding assay (KINOMEscan); conditions: DiscoveRx
T1 construct: purchased DiscoveRx Corporation, San Diego (KINOMEscan service)
T1 sequence (P48736 whole entry): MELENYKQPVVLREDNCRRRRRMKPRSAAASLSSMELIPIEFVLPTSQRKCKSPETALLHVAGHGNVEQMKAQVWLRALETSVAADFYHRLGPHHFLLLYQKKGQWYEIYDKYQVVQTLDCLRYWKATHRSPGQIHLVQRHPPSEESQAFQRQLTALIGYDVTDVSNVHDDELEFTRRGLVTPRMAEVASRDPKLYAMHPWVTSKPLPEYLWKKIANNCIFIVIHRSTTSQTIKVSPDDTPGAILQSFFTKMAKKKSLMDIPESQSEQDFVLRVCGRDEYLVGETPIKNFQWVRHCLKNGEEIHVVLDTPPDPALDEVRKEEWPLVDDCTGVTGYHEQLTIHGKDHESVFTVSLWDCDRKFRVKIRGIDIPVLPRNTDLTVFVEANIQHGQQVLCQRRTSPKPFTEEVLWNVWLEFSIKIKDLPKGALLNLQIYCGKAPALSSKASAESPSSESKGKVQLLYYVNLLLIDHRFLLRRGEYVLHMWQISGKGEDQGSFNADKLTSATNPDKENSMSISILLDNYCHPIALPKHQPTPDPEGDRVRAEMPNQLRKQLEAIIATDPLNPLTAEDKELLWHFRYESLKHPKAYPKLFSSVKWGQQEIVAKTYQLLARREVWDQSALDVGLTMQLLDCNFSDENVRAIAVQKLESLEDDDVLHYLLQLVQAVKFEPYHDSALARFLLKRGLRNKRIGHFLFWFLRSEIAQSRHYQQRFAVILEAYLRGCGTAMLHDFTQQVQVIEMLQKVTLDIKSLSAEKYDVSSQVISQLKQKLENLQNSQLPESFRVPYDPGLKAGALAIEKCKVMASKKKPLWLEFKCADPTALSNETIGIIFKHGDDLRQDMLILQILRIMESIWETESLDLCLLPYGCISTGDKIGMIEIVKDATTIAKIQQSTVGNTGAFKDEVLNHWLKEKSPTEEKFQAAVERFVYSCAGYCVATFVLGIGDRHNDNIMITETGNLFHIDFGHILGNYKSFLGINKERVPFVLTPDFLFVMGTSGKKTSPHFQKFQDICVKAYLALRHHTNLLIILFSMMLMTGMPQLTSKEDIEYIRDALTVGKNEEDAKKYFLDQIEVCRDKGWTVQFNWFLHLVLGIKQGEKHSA
Method: (§6) Enzyme Binding Assays (KINOMEscan®)
(§7) Kinase enzyme binding affinities of compounds disclosed herein were determined using the KINOMEscan technology performed by DiscoveRx Corporation, San Diego, Calif., USA (www.kinomescan.com). Table A reports the obtained Kd values (nM), with the Kd being the inhibitor binding constant: […]

PIK3Cδ_h = target: T2, PIK3Cδ_h (Homo sapiens, UniProt O00329); test: Enzyme binding assay (KINOMEscan); conditions: DiscoveRx
T2 construct: purchased DiscoveRx Corporation, San Diego (KINOMEscan service)
T2 sequence (O00329 1-1044): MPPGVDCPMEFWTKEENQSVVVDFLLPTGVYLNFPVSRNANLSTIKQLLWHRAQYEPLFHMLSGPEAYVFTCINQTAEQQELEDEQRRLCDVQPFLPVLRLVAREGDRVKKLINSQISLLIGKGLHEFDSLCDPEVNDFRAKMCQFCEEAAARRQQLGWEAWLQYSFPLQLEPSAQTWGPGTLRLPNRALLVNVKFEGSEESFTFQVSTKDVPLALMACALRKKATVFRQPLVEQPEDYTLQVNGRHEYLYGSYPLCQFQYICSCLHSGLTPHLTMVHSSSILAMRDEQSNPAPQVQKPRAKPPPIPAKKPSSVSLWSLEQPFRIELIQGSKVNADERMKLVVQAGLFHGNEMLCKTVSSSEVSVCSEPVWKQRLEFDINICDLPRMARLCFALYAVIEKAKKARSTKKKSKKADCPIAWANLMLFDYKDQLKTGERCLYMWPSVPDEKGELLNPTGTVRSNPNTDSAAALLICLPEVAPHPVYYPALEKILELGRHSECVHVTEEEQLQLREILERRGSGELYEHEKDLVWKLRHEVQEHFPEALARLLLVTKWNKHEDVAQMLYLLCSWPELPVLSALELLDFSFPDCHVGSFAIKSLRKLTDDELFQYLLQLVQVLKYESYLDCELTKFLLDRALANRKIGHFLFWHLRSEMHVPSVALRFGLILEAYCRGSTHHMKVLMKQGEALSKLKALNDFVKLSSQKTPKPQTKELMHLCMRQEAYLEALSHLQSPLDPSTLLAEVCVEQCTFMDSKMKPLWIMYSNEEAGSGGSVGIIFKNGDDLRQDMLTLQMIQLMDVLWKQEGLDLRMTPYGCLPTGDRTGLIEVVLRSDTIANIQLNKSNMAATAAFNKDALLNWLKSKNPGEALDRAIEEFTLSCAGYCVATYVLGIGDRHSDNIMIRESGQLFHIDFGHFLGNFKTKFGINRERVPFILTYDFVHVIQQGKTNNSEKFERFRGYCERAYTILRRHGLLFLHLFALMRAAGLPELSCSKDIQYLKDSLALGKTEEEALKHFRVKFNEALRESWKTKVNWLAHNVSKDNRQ
Method: as §6, §7

PIK3Cβ_h = target: T3, PIK3Cβ_h (Homo sapiens, UniProt P42338); test: Enzyme binding assay (KINOMEscan); conditions: DiscoveRx
T3 construct: purchased DiscoveRx Corporation, San Diego (KINOMEscan service)
T3 sequence (P42338 whole entry): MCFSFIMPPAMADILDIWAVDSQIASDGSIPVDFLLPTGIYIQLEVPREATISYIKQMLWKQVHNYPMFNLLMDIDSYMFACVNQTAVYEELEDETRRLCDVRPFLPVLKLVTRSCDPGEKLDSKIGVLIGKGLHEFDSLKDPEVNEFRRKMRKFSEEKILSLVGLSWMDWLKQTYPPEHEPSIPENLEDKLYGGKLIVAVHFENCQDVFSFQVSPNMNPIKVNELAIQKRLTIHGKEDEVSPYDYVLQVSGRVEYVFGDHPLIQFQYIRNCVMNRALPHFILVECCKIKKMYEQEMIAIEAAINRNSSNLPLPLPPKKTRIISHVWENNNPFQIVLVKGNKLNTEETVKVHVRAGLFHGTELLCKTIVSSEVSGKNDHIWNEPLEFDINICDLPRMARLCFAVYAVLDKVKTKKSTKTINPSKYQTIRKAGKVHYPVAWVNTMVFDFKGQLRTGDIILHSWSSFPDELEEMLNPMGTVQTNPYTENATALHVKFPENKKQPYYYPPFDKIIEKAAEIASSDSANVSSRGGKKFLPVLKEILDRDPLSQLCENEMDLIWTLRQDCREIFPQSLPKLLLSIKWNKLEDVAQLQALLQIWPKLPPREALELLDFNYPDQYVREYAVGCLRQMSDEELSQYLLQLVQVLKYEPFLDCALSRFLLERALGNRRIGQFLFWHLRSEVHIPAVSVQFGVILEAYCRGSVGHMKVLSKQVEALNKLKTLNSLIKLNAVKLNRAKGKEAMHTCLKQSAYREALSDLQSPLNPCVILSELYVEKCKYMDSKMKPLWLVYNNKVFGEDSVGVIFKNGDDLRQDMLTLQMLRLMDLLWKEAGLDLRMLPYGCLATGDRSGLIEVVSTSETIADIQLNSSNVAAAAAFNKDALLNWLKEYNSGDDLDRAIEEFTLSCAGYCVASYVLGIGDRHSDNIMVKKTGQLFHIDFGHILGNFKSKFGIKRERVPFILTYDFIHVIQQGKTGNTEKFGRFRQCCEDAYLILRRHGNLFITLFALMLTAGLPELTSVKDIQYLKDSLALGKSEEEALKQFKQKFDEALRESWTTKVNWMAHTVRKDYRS
Method: as §6, §7

PIK3Cα_h = target: T4, PIK3Cα_h (Homo sapiens, UniProt P42336); test: Enzyme binding assay (KINOMEscan); conditions: DiscoveRx
T4 construct: purchased DiscoveRx Corporation, San Diego (KINOMEscan service)
T4 sequence (P42336 whole entry): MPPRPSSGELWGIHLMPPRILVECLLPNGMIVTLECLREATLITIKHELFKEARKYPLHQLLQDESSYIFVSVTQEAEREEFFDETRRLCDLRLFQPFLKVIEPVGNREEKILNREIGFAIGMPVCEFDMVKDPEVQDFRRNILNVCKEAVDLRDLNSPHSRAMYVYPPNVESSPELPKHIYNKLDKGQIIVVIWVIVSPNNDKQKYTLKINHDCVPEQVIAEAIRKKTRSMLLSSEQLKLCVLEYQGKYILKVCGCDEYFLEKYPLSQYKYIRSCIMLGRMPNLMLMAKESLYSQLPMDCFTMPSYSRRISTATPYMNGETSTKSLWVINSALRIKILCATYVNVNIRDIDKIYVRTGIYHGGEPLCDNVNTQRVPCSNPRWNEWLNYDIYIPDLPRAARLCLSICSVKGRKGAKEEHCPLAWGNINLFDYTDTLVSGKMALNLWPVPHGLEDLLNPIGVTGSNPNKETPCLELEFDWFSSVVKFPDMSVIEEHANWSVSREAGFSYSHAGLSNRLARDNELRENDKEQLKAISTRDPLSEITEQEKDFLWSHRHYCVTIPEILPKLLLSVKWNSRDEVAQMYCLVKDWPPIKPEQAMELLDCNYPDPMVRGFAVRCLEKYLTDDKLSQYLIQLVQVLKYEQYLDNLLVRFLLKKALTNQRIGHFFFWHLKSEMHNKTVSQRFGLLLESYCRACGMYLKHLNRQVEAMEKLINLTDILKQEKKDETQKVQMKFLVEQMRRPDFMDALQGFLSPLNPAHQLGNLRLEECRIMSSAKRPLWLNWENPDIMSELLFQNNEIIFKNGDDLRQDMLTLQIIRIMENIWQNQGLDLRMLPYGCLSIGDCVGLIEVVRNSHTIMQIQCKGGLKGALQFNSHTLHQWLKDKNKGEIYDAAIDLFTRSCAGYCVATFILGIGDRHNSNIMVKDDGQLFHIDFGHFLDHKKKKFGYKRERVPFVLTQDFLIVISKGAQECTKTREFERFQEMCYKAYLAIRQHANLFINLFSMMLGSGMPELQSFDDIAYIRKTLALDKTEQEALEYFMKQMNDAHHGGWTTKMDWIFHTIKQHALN
Method: as §6, §7

MTOR_h = target: T5, MTOR_h (Homo sapiens, UniProt P42345); test: Enzyme binding assay (KINOMEscan); conditions: DiscoveRx
T5 construct: purchased DiscoveRx Corporation, San Diego (KINOMEscan service)
Method: as §6, §7

## Cc1c(Cc2c(CNC(=O)[C@H]3CCCN3)nc3c(N)cc(N4CCOCC4)nn23)cccc1C(F)(F)F (stereo in doubt) [Compound 37]
[1]
  IC50: 141 nM
other
  melting point: 212 °C
[2]
  IC50: 158 nM
PIK3Cγ_h
  Kd: 4900 nM
PIK3Cδ_h
  Kd: 68 nM
PIK3Cβ_h
  Kd: 0.8 nM
PIK3Cα_h
  Kd: 5490 nM
MTOR_h
  Kd: 5130 nM

## Cc1c(Cc2c(CN3CC4(C3)CS(=O)(=O)C4)nc3c(-c4cnc[nH]4)cc(N4CCOCC4)nn23)cccc1C(F)(F)F [Compound 1]
[1]
  IC50: ~4 nM
other
  melting point: 217 °C
[2]
  IC50: 9 nM
PIK3Cγ_h
  Kd: 933 nM
PIK3Cδ_h
  Kd: 12 nM
PIK3Cβ_h
  Kd: 1.2 nM
PIK3Cα_h
  Kd: 162 nM
MTOR_h
  Kd: 3160 nM

## Cc1c(Cc2c(CN3CC4(CCS4(=O)=O)C3)nc3c(N)cc(N4CCOCC4)nn23)cccc1C(F)(F)F [Compound 2]
[1]
  IC50: ~4 nM
other
  melting point: 180 °C
[2]
  IC50: 6 nM
PIK3Cγ_h
  Kd: > 30200 nM
PIK3Cδ_h
  Kd: 23 nM
PIK3Cβ_h
  Kd: 2.1 nM
PIK3Cα_h
  Kd: 5490 nM
MTOR_h
  Kd: 21400 nM

## Cc1c(Cc2c(CN3CCC(S(C)(=O)=O)CC3)nc3c(N)cc(N4CCOCC4)nn23)cccc1C(F)(F)F [Compound 4]
[1]
  IC50: ~33 nM
other
  melting point: 188 °C
[2]
  IC50: 18 nM
PIK3Cγ_h
  Kd: > 30200 nM
PIK3Cδ_h
  Kd: 166 nM
PIK3Cβ_h
  Kd: 2.3 nM
PIK3Cα_h
  Kd: 3980 nM
MTOR_h
  Kd: > 30200 nM

## Cc1c(Cc2c(CN3CCC(S(C)(=O)=O)C3)nc3c(N)cc(N4CCOCC4)nn23)cccc1C(F)(F)F (stereo not shown) [Compound 6]
[1]
  IC50: ~13 nM
other
  melting point: 159 °C
[2]
  IC50: 40 nM
PIK3Cγ_h
  Kd: > 30200 nM
PIK3Cδ_h
  Kd: 263 nM
PIK3Cβ_h
  Kd: 2.4 nM
PIK3Cα_h
  Kd: 7080 nM
MTOR_h
  Kd: 21900 nM

## Cc1c(Cc2c(CN3CC(S(C)(=O)=O)C3)nc3c(N)cc(N4CCOCC4)nn23)cccc1C(F)(F)F [Compound 8]
[1]
  IC50: ~20 nM
other
  melting point: 210 °C
[2]
  IC50: 25 nM
PIK3Cγ_h
  Kd: 30900 nM
PIK3Cδ_h
  Kd: 195 nM
PIK3Cβ_h
  Kd: 1.6 nM
PIK3Cα_h
  Kd: 11500 nM
MTOR_h
  Kd: 15500 nM

## Cc1c(Cc2c(CN3CCC(CO)CC3)nc3c(N)cc(N4CCOCC4)nn23)cccc1C(F)(F)F [Compound 9]
[1]
  IC50: ~39 nM
other
  melting point: 215 °C
[2]
  IC50: 76 nM
PIK3Cγ_h
  Kd: > 30200 nM
PIK3Cδ_h
  Kd: 65 nM
PIK3Cβ_h
  Kd: 0.6 nM
PIK3Cα_h
  Kd: 14500 nM
MTOR_h
  Kd: > 30200 nM

## Cc1c(Cc2c(CN3CCS(=O)(=O)CC3)nc3c(N)cc(N4CCOCC4)nn23)cccc1C(F)(F)F [Compound 11]
[1]
  IC50: 7 nM
other
  melting point: 214 °C
[2]
  IC50: 10 nM
PIK3Cγ_h
  Kd: > 30200 nM
PIK3Cδ_h
  Kd: 81 nM
PIK3Cβ_h
  Kd: 0.7 nM
PIK3Cα_h
  Kd: 1860 nM
MTOR_h
  Kd: 11700 nM

## Cc1c(Cc2c(CN3CCCC(CO)C3)nc3c(-c4ncc[nH]4)cc(N4CCOCC4)nn23)cccc1C(F)(F)F (stereo not shown) [Compound 17]
[1]
  IC50: 58 nM
other
  melting point: 171 °C
[2]
  IC50: 65 nM
PIK3Cγ_h
  Kd: 6760 nM
PIK3Cδ_h
  Kd: 79 nM
PIK3Cβ_h
  Kd: < 1.5 nM
PIK3Cα_h
  Kd: 813 nM
MTOR_h
  Kd: > 30200 nM

## Cc1c(Cc2c(CN3CC(O)C3)nc3c(-c4ncc[nH]4)cc(N4CCOCC4)nn23)cccc1C(F)(F)F [Compound 19]
[1]
  IC50: 54 nM
other
  melting point: 198 °C
[2]
  IC50: 50 nM
PIK3Cγ_h
  Kd: 891 nM
PIK3Cδ_h
  Kd: 52 nM
PIK3Cβ_h
  Kd: 1.6 nM
PIK3Cα_h
  Kd: 513 nM
MTOR_h
  Kd: 4370 nM

## Cc1c(Cc2c(CN3CCC4(CCS(=O)(=O)C4)C3)nc3c(N)cc(N4CCOCC4)nn23)cccc1C(F)(F)F (stereo not shown) [Compound 34]
[1]
  IC50: ~74 nM
[2]
  IC50: 87 nM
PIK3Cγ_h
  Kd: > 30200 nM
PIK3Cδ_h
  Kd: 224 nM
PIK3Cβ_h
  Kd: 1.5 nM
PIK3Cα_h
  Kd: 6310 nM
MTOR_h
  Kd: 18200 nM

## Cc1c(Cc2c(CNC(=O)[C@@H]3CCCN3)nc3c(N)cc(N4CCOCC4)nn23)cccc1C(F)(F)F [Compound 35]
[1]
  IC50: 18 nM
[2]
  IC50: 27 nM
PIK3Cγ_h
  Kd: 8640 nM
PIK3Cδ_h
  Kd: 7 nM
PIK3Cβ_h
  Kd: 0.2 nM
PIK3Cα_h
  Kd: 2050 nM
MTOR_h
  Kd: 3220 nM

## Cc1c(Cc2c(CNC(=O)[C@@H]3C[C@@H](F)CN3)nc3c(N)cc(N4CCOCC4)nn23)cccc1C(F)(F)F [Compound 38]
[1]
  IC50: 31 nM
[2]
  IC50: 54 nM
PIK3Cγ_h
  Kd: > 30200 nM
PIK3Cδ_h
  Kd: 14 nM
PIK3Cβ_h
  Kd: 0.2 nM
PIK3Cα_h
  Kd: 1000 nM
MTOR_h
  Kd: 355 nM

## Cc1c(Cc2c(CNC(=O)[C@@H]3CCCN3C)nc3c(N)cc(N4CCOCC4)nn23)cccc1C(F)(F)F [Compound 39]
[1]
  IC50: 38 nM
[2]
  IC50: 44 nM
PIK3Cγ_h
  Kd: 11700 nM
PIK3Cδ_h
  Kd: 82 nM
PIK3Cβ_h
  Kd: 0.3 nM
PIK3Cα_h
  Kd: 3550 nM
MTOR_h
  Kd: 7390 nM

## Cc1c(Cc2c(CNC(=O)[C@@H]3C[C@@H](O)CN3C)nc3c(N)cc(N4CCOCC4)nn23)cccc1C(F)(F)F [Compound 41]
[1]
  IC50: 18 nM
[2]
  IC50: 60 nM
PIK3Cγ_h
  Kd: 21400 nM
PIK3Cδ_h
  Kd: 48 nM
PIK3Cβ_h
  Kd: 0.4 nM
PIK3Cα_h
  Kd: 5370 nM
MTOR_h
  Kd: 6760 nM
